Assay results: patent US20250340569A1, “INHIBITORS OF KIF18A AND USES THEREOF” (Insilico Medicine IP Limited, priority 2023, published 2025)

What was measured:
Kif18A = molecular target: T1, Kif18A (Homo sapiens, UniProt Q8NI77); assay: KIF18A assay (ADP Glo); details: biochemical assay, ADP Glo luminescence
T1 sequence (Q8NI77 1-898): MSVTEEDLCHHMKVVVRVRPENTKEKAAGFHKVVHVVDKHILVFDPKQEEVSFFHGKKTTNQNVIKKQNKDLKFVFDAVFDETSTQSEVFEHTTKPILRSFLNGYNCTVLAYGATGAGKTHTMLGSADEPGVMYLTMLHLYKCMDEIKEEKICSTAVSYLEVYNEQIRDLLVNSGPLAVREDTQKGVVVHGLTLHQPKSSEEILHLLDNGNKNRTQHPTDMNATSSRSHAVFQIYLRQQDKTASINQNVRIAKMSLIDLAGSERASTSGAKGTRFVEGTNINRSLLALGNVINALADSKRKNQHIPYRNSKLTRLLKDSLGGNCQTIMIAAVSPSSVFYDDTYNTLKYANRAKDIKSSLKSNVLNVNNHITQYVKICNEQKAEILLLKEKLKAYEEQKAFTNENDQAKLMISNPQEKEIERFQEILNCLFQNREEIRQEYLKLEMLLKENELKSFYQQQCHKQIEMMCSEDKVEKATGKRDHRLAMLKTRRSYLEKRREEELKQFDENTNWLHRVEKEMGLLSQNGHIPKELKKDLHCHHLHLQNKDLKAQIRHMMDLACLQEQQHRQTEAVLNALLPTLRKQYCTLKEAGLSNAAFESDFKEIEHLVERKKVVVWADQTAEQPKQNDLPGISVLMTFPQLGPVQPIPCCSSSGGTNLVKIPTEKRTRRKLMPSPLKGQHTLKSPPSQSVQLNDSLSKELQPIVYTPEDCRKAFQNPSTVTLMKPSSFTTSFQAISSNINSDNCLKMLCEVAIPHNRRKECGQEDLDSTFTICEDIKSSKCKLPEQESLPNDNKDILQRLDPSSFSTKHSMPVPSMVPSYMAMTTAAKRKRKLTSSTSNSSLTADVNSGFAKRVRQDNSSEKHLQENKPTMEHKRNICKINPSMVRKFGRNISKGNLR
Experimental: The KIF18A assay was performed as follows:
1.1. Prepared 1× Kinase Buffer
• a) Added 40 μL test compound to 384-well dilution plate • b) Diluted compound 1:3 in succession in DMSO for each column for 10 pts • c) Transferred 0.1 μL diluted compound solution to 384 assay plate using Echo, each column containing 2 replicates • d) Added 5 μL enzyme working solution to 384-well assay plate, centrifuge 1000 RPM for 1 min e) Incubated at 25° C. for 15 min • f) Added 5 μL ATP working solution to initiate reaction • g) Incubated at 25° C. for 60 min • h) Added 10 μL ADP Glo reagent, centrifuge 1000 RPM for 1 min • i) Incubated at 25° C. for 60 min • j) Added 20 μL kinase detection reagent, centrifuge 1000 RPM for 1 min • k) Incubated at 25° C. for 60 min • l) Read Luminescence Signal on Envision 2104 plate reader.
1.3. Data Analysis—Calculated IC50 and Plot Dose-Response Curve of Compounds:
Calculated IC50 by fitting % Inhibition values and log of compound concentrations to nonlinear regression (dose response−variable slope) with GraphPad 6.0.
[formula] • X: log of inhibitor concentration; Y: % Inhibition

OVCAR-3 = assay: OVCAR3 CTG assay; type: cell-based; details: Homo sapiens, OVCAR-3, 144 h; CellTiter-Glo, 6 days incubation
Description: Example B2: OVCAR3 CTG Assay
• a) Preparation of complete medium: Added FBS and appropriate additives according to the information sheet provided by the vendor. Mix gently. • b) Checked the cell name and complete medium and passage number marked on the flask. For adherent cell lines, refer to c to k. For suspension cell lines, refer to g to k. • c) Removed and discarded culture medium using a vacuum pump. • d) Briefly rinsed the cell layer with 0.25% (w/v) Trypsin-0.038% (w/v) EDTA solution to remove all traces of serum that contains trypsin inhibitor. • e) Added 3.0 ml of Trypsin-EDTA solution to flask and observed cells under an inverted microscope until cell layer is dispersed. • f) Added 9.0 ml of complete growth medium and aspirated cells by gently pipetting. • g) Transfered the cell suspension to a centrifuge tube and centrifuged at 1000 rpm for 4 minutes. • h) Discarded the supernatant using a vacuum pump. • i) Added appropriate volume of complete medium. Suspended the cell pellet by gently pipetting. • j) Counted the cell numbers with Vi-cell XR and adjusted cells to appropriate density. • k) Added 190 μL of cell suspension to 96-well opaque-walled clear bottom plates according to the planned plate layout and placed the plates in the CO2 incubator overnight.
2) Compound Stock Preparation:
• a) Plate preparation of testing articles:
The compounds were dissolved in DMSO to prepare 10 mM stock solution. The start working concentration (2 mM) was prepared with DMSO.
b) Staurosporine Plate Preparation:
0.4 mM Staurosporine was prepared in DMSO at working concentration.
The 20× compound containing medium was prepared according to the plate map. 10 μL of 20× compound containing medium was added into each well of the assay plates. Centrifuged at 1000 rpm for 1 minute. The total dilution was 200-fold.
3) Cells were Incubated with the Compounds for 6 Days at 5% CO2, 37° C.
Assay Measurement for CTG Assay
1) Preparation of Reagents
• a) Thawed the CellTiter-Glo buffer and equilibrated to room temperature prior to use. • b) Equilibrated the lyophilized CellTiter-Glo substrate to room temperature prior to use. • c) Transfered the appropriate volume of CellTiter-Glo buffer into the amber bottle containing CellTiter-Glo substrate to reconstitute the lyophilized enzyme/substrate mixture. This formed the CellTiter-Glo reagent. • d) Mixed by gently vortexing, swirling or by inverting the contents to obtain a homogeneous solution. The CellTiter-Glo substrate went into solution easily in less than one minute.
• a) Observed the cell morphology under an inverted microscope after corresponding treatment. • b) Equilibrated the plate and its contents to room temperature for approximately 30 minutes. • c) Added 100 μL of CellTiter-Glo reagent to the assay plate by Multidrop Combi instrument. • d) Mixed contents for 10 minutes on an orbital shaker to induce cell lysis. • e) Allowed the plate to incubate at room temperature for 10 minutes to stabilize luminescent signal. • f) Pasted the clear bottom with white back seal and record luminescence with Envision. The settings should be: Luminescence, measurement time 0.1 s.

Row | IC50 (Kif18A) | IC50 (OVCAR-3) | Structure (SMILES)
1 | 10 to 100 nM | 100 to 1000 nM | CC12CCN(CC1)c1cc(NS(=O)(=O)CCO)ccc1C(=O)Nc1cccc(n1)OCCOC2 [EX01]
2 | 10 to 100 nM | 10 to 100 nM | Cc1cc2nc(n1)NCCC(C)OCC1(C)CCN(CC1)c1cc(NS(=O)(=O)CCO)ccc1C(=O)N2 (stereo not shown) [EX38]
3 | 10 to 100 nM | 10 to 100 nM | Cc1cc2nc(n1)NCC(C)COCC1(C(F)(F)F)CCN(CC1)c1nc(NC(C)(C)CO)ccc1C(=O)N2 (stereo not shown) [EX55]
4 | < 10 nM | < 10 nM | Cc1cc2nc(n1)N1CCOC(COCC3(C(F)(F)F)CCN(CC3)c3cc(NS(=O)(=O)CCO)c(F)cc3C(=O)N2)C1 (stereo not shown) [EX112]
5 | 10 to 100 nM | 100 to 1000 nM | Cc1cc2nc(n1)N(C)CCCOCC1(C(F)(F)F)CCN(CC1)c1cc(NS(=O)(=O)CCO)ccc1C(=O)N2 [EX27]
6 | < 10 nM | < 10 nM | Cc1cc2nc(n1)NCCCCCC1(C)CCN(CC1)c1cc(NS(=O)(=O)CCO)ccc1C(=O)N2 [EX34]
7 | 10 to 100 nM | 100 to 1000 nM | Cc1cc2nc(n1)N(C)CCOCCC1(C)CCN(CC1)c1cc(NS(=O)(=O)CCO)ccc1C(=O)N2 [EX09]
8 | 10 to 100 nM | 10 to 100 nM | O=C1Nc2ccc(=O)n(n2)CCCCOCC2(C(F)(F)F)CCN(CC2)c2cc(NS(=O)(=O)CCO)ccc21 [EX50]
9 | 10 to 100 nM | 10 to 100 nM | Cc1cc2nc(n1)NC(C)CCOCC1(C)CCN(CC1)c1cc(NS(=O)(=O)CCO)ccc1C(=O)N2 (stereo not shown) [EX20]
10 | < 10 nM | 10 to 100 nM | CC12CCN(CC1)c1cc(NS(=O)(=O)CCO)ccc1C(=O)Nc1cccc(n1)OCCCOC2 [EX02]
11 | 10 to 100 nM |  | Cc1cc2nc(n1)NCC(O)COCC1(C)CCN(CC1)c1cc(NS(=O)(=O)CCO)ccc1C(=O)N2 (stereo not shown) [EX40]
12 |  | 100 to 1000 nM | CN1CCCOCC2(C(F)(F)F)CCN(CC2)c2cc(NS(=O)(=O)CCO)ccc2C(=O)Nc2cc(Cl)cc1n2 [EX99]
13 |  | 10 to 100 nM | [2H]C([2H])([2H])N1CCCCCC2(C(F)(F)F)CCN(CC2)c2cc(NS(=O)(=O)CCO)ccc2C(=O)Nc2cccc1n2 [EX60]
14 |  | 10 to 100 nM | CN1CCCOCC2(C(F)F)CCN(CC2)c2cc(NS(=O)(=O)CCO)ccc2C(=O)Nc2ccnc1n2 [EX95]
15 |  | 10 to 100 nM | [2H]C([2H])([2H])N1CCCOCC2(C(F)(F)F)CCN(CC2)c2cc(S(=O)(=O)NC(C)(C)C)ccc2C(=O)Nc2cccc1n2 [EX69]
16 |  | 10 to 100 nM | CC12CCN(CC1)c1cc(S(=O)(=O)NC(C)(C)C)ccc1C(=O)Nc1ccc(=O)n(n1)CCCCOC2 [EX14]
17 |  | 10 to 100 nM | CN1CCCOCC2(C(F)(F)F)CCN(CC2)c2cc(NS(=O)(=O)CCO)cnc2C(=O)Nc2cccc1n2 [EX86]
18 |  | 10 to 100 nM | CCS(=O)(=O)Nc1cc2c(cn1)C(=O)Nc1cccc(n1)N(C)CCCOCC1(C(F)(F)F)CCN2CC1 [EX97]
19 |  | 10 to 100 nM | Cc1cc2nc(n1)NC/C=C\COCC1(C(F)(F)F)CCN(CC1)c1cc(NS(=O)(=O)CCO)ccc1C(=O)N2 [EX51]
20 |  | 10 to 100 nM | CC1CNc2cccc(n2)NC(=O)c2ccc(NS(=O)(=O)CCO)cc2N2CCC(C(F)(F)F)(CC2)COC1 (stereo not shown) [EX56]
21 |  | 10 to 100 nM | O=C1Nc2ccc(=O)n(n2)CCCCCCC2(C(F)(F)F)CCN(CC2)c2cc(NS(=O)(=O)CCO)ccc21 [EX64]
22 |  | 10 to 100 nM | CN1CCCCCC2(C(F)(F)F)CCN(CC2)c2cc(NS(=O)(=O)CCO)c(F)cc2C(=O)Nc2cccc1n2 [EX104]
23 |  | 10 to 100 nM | CC12CCN(CC1)c1cc(NS(=O)(=O)CCO)ccc1C(=O)Nc1cc(C(F)(F)F)nc(n1)NCCCOC2 [EX39]
24 |  | 100 to 1000 nM | [2H]C([2H])([2H])N1CCCCC2(C(F)(F)F)CCN(CC2)c2cc(NS(=O)(=O)CCO)ccc2C(=O)Nc2cccc1n2 [EX63]
25 |  | 10 to 100 nM | CC12CCN(CC1)c1cc(S(=O)(=O)NC(C)(C)C)ccc1C(=O)Nc1cccc(n1)OCCCOC2 [EX07]
26 |  | < 10 nM | O=C1Nc2cccc(n2)NCCCCCC2(C(F)(F)F)CCN(CC2)c2cc(NS(=O)(=O)CCO)ccc21 [EX103]

The remaining lines, values behind:

Row | Structure (SMILES) | IC50 (Kif18A) | IC50 (OVCAR-3)
27 | Cc1cc2nc(n1)NC[C@@H](C)COCC1(C(F)(F)F)CCN(CC1)c1cc(NS(=O)(=O)CCO)ccc1C(=O)N2 [EX36-B] | 10 to 100 nM | < 10 nM
28 | C[C@H]1CNc2cccc(n2)NC(=O)c2ccc(NS(=O)(=O)CCO)cc2N2CCC(C(F)(F)F)(CC2)COC1 [EX56-A] | < 10 nM | 10 to 100 nM
29 | Cc1cc2nc(n1)N(C)C[C@H](C)COCC1(C)CCN(CC1)c1cc(NS(=O)(=O)CCO)ccc1C(=O)N2 [EX33-A] | 10 to 100 nM | 100 to 1000 nM
30 | O=C1Nc2cccc(n2)N2CCO[C@@H](COCC3(C(F)(F)F)CCN(CC3)c3cc(NS(=O)(=O)CCO)ncc31)C2 (stereo in doubt) [EX92-B] |  | < 10 nM
31 | CO[C@H]1CNc2cccc(n2)NC(=O)c2ccc(NS(=O)(=O)CCO)cc2N2CCC(C(F)(F)F)(CC2)COC1 [EX78-B] |  | < 10 nM
32 | CO[C@@H]1CNc2cccc(n2)NC(=O)c2ccc(NS(=O)(=O)CCO)cc2N2CCC(C(F)(F)F)(CC2)COC1 [EX78-A] |  | 10 to 100 nM
33 | Cc1cc2nc(n1)NC[C@H](C(F)(F)F)COCC1(C)CCN(CC1)c1cc(NS(=O)(=O)CCO)ccc1C(=O)N2 [EX32-A] |  | 10 to 100 nM
34 | O=C1Nc2cccc(n2)N2CCO[C@H](COCC3(C(F)(F)F)CCN(CC3)c3cc(NS(=O)(=O)CCO)ccc31)C2 [EX81-B] |  | 10 to 100 nM
35 | CCS(=O)(=O)Nc1cc2c(cn1)C(=O)Nc1cccc(n1)NC[C@@H](C)CCCC1(C(F)(F)F)CCN2CC1 [EX101-B] |  | < 10 nM
36 | C[C@H]1C/C=C/C2(C(F)(F)F)CCN(CC2)c2cc(NS(=O)(=O)CCO)ccc2C(=O)Nc2cccc(n2)NC1 [EX85-B] |  | < 10 nM
37 | Cc1cc2nc(n1)N1CCO[C@@H](COCC3(C(F)F)CCN(CC3)c3cc(NS(=O)(=O)CCO)ccc3C(=O)N2)C1 [EX113-B] |  | 10 to 100 nM
38 | CCS(=O)(=O)Nc1cc2c(cn1)C(=O)Nc1cccc(n1)NC[C@H](C)CCCC1(C(F)(F)F)CCN2CC1 [EX101-A] |  | 10 to 100 nM
39 | O=C1Nc2ccnc(n2)N2CCO[C@H](COCC3(C(F)(F)F)CCN(CC3)c3cc(NS(=O)(=O)CCO)ccc31)C2 [EX93-A] |  | < 10 nM
